Source: publication PMC10313624 (EJNMMI Radiopharmacy and Chemistry, 2023)
Like-named read-outs stand apart in the source and are kept apart here. Marks after values point to notes of the source that are not given here. Each block holds one molecule with its values, some of them ahead of it. Bridge positions count the residues as written; N and C are the ends. Square brackets hold non-standard residues; d marks the D form. Peptide text beside a SMILES is read from it. * marks the point of attachment. DOTA = O=C(O)CN1CCN(CC(=O)O)CCN(CC(=O)*)CCN(CC(=O)O)CC1; dPhe(4-NHCONH2) = NC(=O)Nc1ccc(C[C@@H](N)C(=O)O)cc1; Dihydroorotyl(S) = O=C1C[C@@H](C(=O)*)NC(=O)N1; Phe(4-Cl) = N[C@@H](Cc1ccc(Cl)cc1)C(=O)O; Phe(4-NH2) = Nc1ccc(C[C@H](N)C(=O)O)cc1

How the values were obtained:
[1] = assay type: physicochemical; settings: 37 °C, radio-HPLC, n = 1
Procedure: (§1) Haarlerbergweg, The Netherlands) (250 and 100 µL, respectively) at 37 °C. […] In mouse serum, the proteins were precipitated by adding an aliquot of the radiotracer to an equal volume of acetonitrile. The vial was vortexed vigorously and centrifuged for 20 min at 10,000 rpm. Stability studies were monitored by radio-HPLC (Additional file 1: Figs. S5 and S6).

[2] = tested on: SSTR2; parameters: method as in Hou et al. [2022]; Zhu et al. [2020]; Fani et al. [2017]; settings: compared to DOTA-TATE; ref Hou et al. [2022]; Zhu et al. [2020]; Fani et al. [2017]; cited from earlier work
[3] = in vitro; assay type: in vitro ADME; settings: mouse, serum
Procedure: as §1

[4] = in vivo; cited from earlier work

SMILES: C[C@@H](O)[C@@H]1NC(=O)[C@H](CCCCN)NC(=O)[C@@H](Cc2ccc(NC(N)=O)cc2)NC(=O)[C@H](Cc2ccc(NC(=O)[C@@H]3CC(=O)NC(=O)N3)cc2)NC(=O)[C@H](NC(=O)[C@H](Cc2ccc(Cl)cc2)NC(=O)CN2CCN(CC(=O)O)CCN(CC(=O)O)CCN(CC(=O)O)CC2)CSSC[C@@H](C(=O)N[C@H](Cc2ccc(O)cc2)C(N)=O)NC1=O [[^225Ac]Ac-DOTA-JR11] [metal not drawn] ({DOTA}-[Phe(4-Cl)][dC][Phe(4-NH2)](Dihydroorotyl(S))[dPhe(4-NHCONH2)]KTC[dY]-NH2; disulfide 2-7 (inferred); C-terminus assumed)
PBS (%) intact radiolabeled peptide ([1]; radiolabeling condition 1, 22 h, 50 kBq in 500 µL PBS): 76.9^a % | PBS (%) intact radiolabeled peptide ([1]; radiolabeling condition 2 (without L-melatonin), 24 h, 50 kBq in 500 µL PBS): 56.6^b % | PBS (%) intact radiolabeled peptide ([1]; radiolabeling condition 3 (with L-melatonin), 27 h, 50 kBq in 500 µL PBS): 81.0^c %

SMILES: C[C@@H](O)[C@@H]1NC(=O)[C@H](CCCCN)NC(=O)[C@@H](Cc2ccc(NC(N)=O)cc2)NC(=O)[C@H](Cc2ccc(NC(=O)[C@@H]3CC(=O)NC(=O)N3)cc2)NC(=O)[C@H](NC(=O)[C@H](Cc2ccc(Cl)cc2)NC(=O)CN2CCN(CC(=O)O)CCN(CC(=O)O)CCN(CC(=O)O)CC2)CSSC[C@@H](C(=O)N[C@H](Cc2ccc(O)cc2)C(N)=O)NC1=O [DOTA-JR11] ({DOTA}-[Phe(4-Cl)][dC][Phe(4-NH2)](Dihydroorotyl(S))[dPhe(4-NHCONH2)]KTC[dY]-NH2; disulfide 2-7; C-terminus assumed)
binding affinity to SSTR2 [2]: lower binding affinity

SMILES: C[C@@H](O)[C@@H]1NC(=O)[C@H](CCCCN)NC(=O)[C@@H](Cc2ccc(NC(N)=O)cc2)NC(=O)[C@H](Cc2ccc(NC(=O)[C@@H]3CC(=O)NC(=O)N3)cc2)NC(=O)[C@H](NC(=O)[C@H](Cc2ccc(Cl)cc2)NC(=O)CN2CCN(CC(=O)O)CCN(CC(=O)O)CCN(CC(=O)O)CC2)CSSC[C@@H](C(=O)N[C@H](Cc2ccc(O)cc2)C(N)=O)NC1=O [[^225Ac]Ac-DOTA-JR11, metal not drawn] ({DOTA}-[Phe(4-Cl)][dC][Phe(4-NH2)](Dihydroorotyl(S))[dPhe(4-NHCONH2)]KTC[dY]-NH2; disulfide 2-7 (inferred); C-terminus assumed)
remaining at 22 h, 200 kBq/mL [3]: 80.9% | remaining at 24 h, 200 kBq/mL [3]: 81.4% | remaining at 27 h, 200 kBq/mL [3]: 81%

Second part, led by results:

remaining at 2 h, 12 MBq/mL [3]: 94.5% | remaining at 24 h, 12 MBq/mL [3]: 93.7%
SMILES: C[C@@H](O)[C@@H]1NC(=O)[C@H](CCCCN)NC(=O)[C@@H](Cc2ccc(NC(N)=O)cc2)NC(=O)[C@H](Cc2ccc(NC(=O)[C@@H]3CC(=O)NC(=O)N3)cc2)NC(=O)[C@H](NC(=O)[C@H](Cc2ccc(Cl)cc2)NC(=O)CN2CCN(CC(=O)O)CCN(CC(=O)O)CCN(CC(=O)O)CC2)CSSC[C@@H](C(=O)N[C@H](Cc2ccc(O)cc2)C(N)=O)NC1=O [[^177Lu]Lu-DOTA-JR11, metal not drawn] ({DOTA}-[Phe(4-Cl)][dC][Phe(4-NH2)](Dihydroorotyl(S))[dPhe(4-NHCONH2)]KTC[dY]-NH2; disulfide 2-7 (inferred); C-terminus assumed)

PBS (%) intact radiolabeled peptide ([1]; 2 h, 1.2 MBq in 200 µL PBS): 96.5% | PBS (%) intact radiolabeled peptide ([1]; 24 h, 1.2 MBq in 200 µL PBS): 96.8%
SMILES: C[C@@H](O)[C@@H]1NC(=O)[C@H](CCCCN)NC(=O)[C@@H](Cc2ccc(NC(N)=O)cc2)NC(=O)[C@H](Cc2ccc(NC(=O)[C@@H]3CC(=O)NC(=O)N3)cc2)NC(=O)[C@H](NC(=O)[C@H](Cc2ccc(Cl)cc2)NC(=O)CN2CCN(CC(=O)O)CCN(CC(=O)O)CCN(CC(=O)O)CC2)CSSC[C@@H](C(=O)N[C@H](Cc2ccc(O)cc2)C(N)=O)NC1=O [[^177Lu]Lu-DOTA-JR11] [metal not drawn] ({DOTA}-[Phe(4-Cl)][dC][Phe(4-NH2)](Dihydroorotyl(S))[dPhe(4-NHCONH2)]KTC[dY]-NH2; disulfide 2-7 (inferred); C-terminus assumed)
hematologic toxicity [4]: severe grade 4 hematologic toxicity
